# Measured values taken from patent US20250034139A1, “AMINE COMPOUNDS HAVING ANTI-INFLAMMATORY, ANTIFUNGAL, ANTIPARASITIC, AND ANTICANCER ACTIVITY” (PHARMA CINQ, LLC, priority 2013, published 2025).
# Counter-ions that a name gives are not always drawn.
# What was measured:
# [1] = tested on: Candida albicans strain 3153; assay: Example H: Candida albicans growth inhibition (OD 600 nm); assay type: cell-based; conditions: for MIC: Candida albicans, 3153, 24 hrs at 30° C., YPD, XLfit, read-out: MIC (uM) (99% of inhibition of fungal growth); for IC50: Candida albicans, 3153, read-out: IC50 (uM) (50% inhibition of fungal growth), 24 hrs at 30° C., YPD, XLfit
# In short: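 Growth inhibition computed as % versus DMSO control from OD600 after ~24 h at 30° C. Inoculum: washed overnight YPD culture of strain 3153 at 3.5×10^4 CFU/ml in YPD; final compound concentrations 0, 5, 10, 16, 22, 30, 40 μM, duplicate wells.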
# [2] = tested on: Cryptococcus neoformans (serotype D); assay: Example K: Cryptococcus neoformans (serotype D) growth inhibition; assay type: cell-based; conditions: Cryptococcus deneoformans, OD of 48 hour reading, 37° C., tested 4 to 60 μM, XLfit; for IC50: read-out: IC50 (concentration for 50% of inhibition); for MIC: read-out: MIC (concentration for maximum-99% of inhibition)
# [3] = tested on: 4T1 murine breast cancer cells; assay: Example S: in vitro anticancer screen, 4T1 cells, Wst1; assay type: cell-based, mouse; conditions: Mus musculus, 4T1, 18 h, 18 hr, Wst1; for viability at 1 µM: read-out: 4T1 1 μM, percent of cancer cell survival relative to vehicle treated cells; for viability at 5 µM: read-out: 4T1 5 μM, percent of cancer cell survival relative to vehicle treated cells
# In short: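 4T1 cells seeded at 1×10^4/well were exposed to compound at 1 μM or 5 μM for 18 hr after plating. Wst1 tetrazolium dye was then added for about 2 hr and absorbance read at 450 nm (reference 630 nm). Values are percent survival relative to vehicle-treated cells.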
# Trichophyton rubrum = assay: Example J: Trichophyton rubrum growth inhibition, scoring by eye; assay type: cell-based; conditions: Trichophyton rubrum, 144 h; 6 days at 30° C., tested 6 to 40 μM; read-out: MIC, μM (maximum inhibition concentration, scoring by eye)
# In short: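 Filtered T. rubrum suspension from PDA plates (grown 4 days, 30 °C) treated with diluted compounds in triplicate, incubated 6 days at 30 °C. Plates imaged; MIC scored by eye.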
# THP-1 cells = assay: Example D: LPS-triggered THP-1 cell death assay, acute/5-hour and chronic/48-hour; assay type: cell-based, Human; conditions: for Viable cell percent change, Chronic/48-hour, Mean: 10 ng/ml LPS, 0.1 μM test compound
# Procedure: Compounds of the invention were tested at 0.1 μM versus AC in the LPS-triggered THP-1 cell death assay. Both acute/5-hour and chronic/48-hour phases of cell death were assessed. Compounds were screened in batches with DMSO as the negative control and AC as the high activity control.
MIC [1] [µM],IC50 [1] [µM],IC50 [2] [µM],MIC [2] [µM],MIC (Trichophyton rubrum) [µM],SMILES,viability at 1 µM [3] [%],viability at 5 µM [3] [%],"Viable cell percent change, Chronic/48-hour, Mean (THP-1 cells) [%]","activity relative to AC in the LPS-triggered THP-1 cell death assay, in words (THP-1 cells; 0.1 μM, 5-hour and 48-hour time points)"
42.5,19,2,13.4,> 40,"CCCCCCOCCCCCCCC[n+]1ccc(N)cc1 [BO, 4-Amino-1-[8-(hexyloxy)octyl]pyridinium salts]",20.7,18.6,28.35,
20.1,7.08,1.88,11.5,12,"CCCCCCOCCCCCCCCCCNc1ccnc2ccccc12 [Compound AL, N-[10-(Hexyloxy)decyl]quinolin-4-amine]",16.6,18.3,19.14,equivalent activity to AC at both the 5-hour and 48-hour time points
26.6,11.2,1.06,10.6,6,"CCCCCCOCCCCCCCCNc1ccnc2c(Cl)cccc12 [Compound AX, 8-Chloro-N-[8-(hexyloxy)octyl]quinolin-4-amine]",24.3,18,18.20,
